In US8017124B2, “Use of DMBT1 for capturing sulphate and phosphate group exposing agents” (priority 2004, dated 2011):
Where two headings read alike, the source gives them in different places.

What was measured:
DMBT1pbs1 = molecular target: T1, DMBT1pbs1 (Homo sapiens, UniProt Q9UGM3); format: binding; set-up: key: +++: no difference in aggregation compared to reference; ++: moderate inhibition of aggregation over the entire time course or maximal aggregation delayed by 1-5-min compared to reference; +: strong inhibition of aggregation over the entire time course or maximal aggregation delayed by 5-10 min compared to reference; −: complete inhibition of aggregation after 10 min
T1 construct: purchased Eurogentec, Belgium
Description: Streptococcus mutans (Ingbritt), Streptococcus gordonii (HG 222 and DSM20568), Escherichia coli (F7 and OM36-1), and Helicobacter pylori (ATCC 43504) were gown and processed as described earlier. Salmonella typhimurium (strain SF1399: wild type; strain SF1195: Rc chemotype; strain SF1567: Rd1 chemotype; strain SF1398: Re chemotype) were kindly provided by Dr. Ben Appelmelk from the Free University of Amsterdam, The Netherlands, and were grown and processed as previously described for E. coli. The bacteria were diluted in the buffers depicted previously to a final OD700 of 0.5 or 1.0 corresponding to about 0.5 and 1.0×10^9 cells/ml respectively.
For quantitative measurements of bacterial aggregation, we added 200 μl peptide stock solution (1 mg/ml in 10% DMSO) diluted with 300 μl TBS containing 0.1% v/v Tween 20 and 1 mM CaCl2 (TBS-TC) to 500 μl of the respective bacterial suspensions to obtain final peptide concentrations of […]. As controls, we used bacterial suspensions, to which 200 μl 10% (v/v %) DMSO in H2O and 300 μl TBS-TC were added. Bacterial aggregation was monitored by measuring the optical density at 700 nm in intervals of 1 min for 1 h in a spectrophotometer (UVICON 930, Kontron Instruments). For the semi-quantitative high-throughput competition assays, we first determined the allowed pH range for DMBT1pbs1-mediated aggregation of S. gordonii and E. coli by using TBS-TC adjusted with either HCl or NaOH. […] For monitoring competitive effects, we preincubated 20 μl of the DMBT1pbs1 stock solution (20 μg) with 20 μl of the respective substance solutions in 48-well microtiter plates at room temperature (RT) for 2 min. As reference served 20 μl 10% (v/v) DMSO solution in H2O mixed with 20 μl of the solvents of the respective substances. Afterwards, 100 μl of S. gordonii or E. coli (resuspended in TBS-TC or TBS-T, respectively, for the calcium-free assays) solution was added simultaneously to each well using a multichannel pipette. Bacterial aggregation was compared to the reference by visual inspection over a time course of 10 min. The scoring system was: (+++) no difference in aggregation compared to reference. (++) moderate inhibition of aggregation over the entire time course or maximal aggregation delayed by 1-5-min compared to reference; (+) strong inhibition of aggregation over the entire time course or maximal aggregation delayed by 5-10 min compared to reference; (−) complete inhibition of aggregation after 10 min. Each experiment was at least done in triplicate.
Sucrose, maltose, dextrose, and the various salts tested were standard reagents obtained from Merck or Sigma. […] The following substances were obtained from Sigma with catalogue numbers in brackets: heparansulfate (H-7640), chondroitinsulfate B (C-3788), azoxymethane (A-9517), N-nitrosodiethlylamine (N-0258), streptococcus sanguis LTA (L-3765), Staphylococcus aureus LTA (L-2515), Escherichia coli LPS (L-3012), Klebsiella pneumoniae LPS (L-1770), Salmonella typhimurium LPS (L-6511), Salmonella minnesota LPS (chemotype Rd1; L-9391), L-α-phosphatidylcholine (P-279), CUROSURF™ with 80 mg/ml phospholipids from pig surfactant (54 mg/ml phosphatidylcholine and 30-5 mg/ml D-palmitoylphosphatidylcholine; overall: 99% polar phospholipids and 1% proteins) was obtained from Dey (Napa; Italy), and sIgA was purchased from Sigma. The dNTPs and the dNTP-Mix were from Roche Diagnostics. The DNA used in all experiments was the 4.7-kb plasmid pEGFP-N1 from Clontech.

[1] = molecular target: T2, rDMBT1 binding to HIV-gp120 (Homo sapiens, UniProt Q9UGM3, G1295S/L1336F/T649M); assay: Effects of DSS and dextran on rDMBT1 binding to HIV-gp120; settings: 100 μg/ml DSS or dextran; rDMBT1 2 μg/ml; gp120 1 μg/ml
T2 construct: made in house; host or cells: rDMBT1 from T-REx-CHO
T2 sequence (Q9UGM3 20-2413 T649M/G1295S/L1336F): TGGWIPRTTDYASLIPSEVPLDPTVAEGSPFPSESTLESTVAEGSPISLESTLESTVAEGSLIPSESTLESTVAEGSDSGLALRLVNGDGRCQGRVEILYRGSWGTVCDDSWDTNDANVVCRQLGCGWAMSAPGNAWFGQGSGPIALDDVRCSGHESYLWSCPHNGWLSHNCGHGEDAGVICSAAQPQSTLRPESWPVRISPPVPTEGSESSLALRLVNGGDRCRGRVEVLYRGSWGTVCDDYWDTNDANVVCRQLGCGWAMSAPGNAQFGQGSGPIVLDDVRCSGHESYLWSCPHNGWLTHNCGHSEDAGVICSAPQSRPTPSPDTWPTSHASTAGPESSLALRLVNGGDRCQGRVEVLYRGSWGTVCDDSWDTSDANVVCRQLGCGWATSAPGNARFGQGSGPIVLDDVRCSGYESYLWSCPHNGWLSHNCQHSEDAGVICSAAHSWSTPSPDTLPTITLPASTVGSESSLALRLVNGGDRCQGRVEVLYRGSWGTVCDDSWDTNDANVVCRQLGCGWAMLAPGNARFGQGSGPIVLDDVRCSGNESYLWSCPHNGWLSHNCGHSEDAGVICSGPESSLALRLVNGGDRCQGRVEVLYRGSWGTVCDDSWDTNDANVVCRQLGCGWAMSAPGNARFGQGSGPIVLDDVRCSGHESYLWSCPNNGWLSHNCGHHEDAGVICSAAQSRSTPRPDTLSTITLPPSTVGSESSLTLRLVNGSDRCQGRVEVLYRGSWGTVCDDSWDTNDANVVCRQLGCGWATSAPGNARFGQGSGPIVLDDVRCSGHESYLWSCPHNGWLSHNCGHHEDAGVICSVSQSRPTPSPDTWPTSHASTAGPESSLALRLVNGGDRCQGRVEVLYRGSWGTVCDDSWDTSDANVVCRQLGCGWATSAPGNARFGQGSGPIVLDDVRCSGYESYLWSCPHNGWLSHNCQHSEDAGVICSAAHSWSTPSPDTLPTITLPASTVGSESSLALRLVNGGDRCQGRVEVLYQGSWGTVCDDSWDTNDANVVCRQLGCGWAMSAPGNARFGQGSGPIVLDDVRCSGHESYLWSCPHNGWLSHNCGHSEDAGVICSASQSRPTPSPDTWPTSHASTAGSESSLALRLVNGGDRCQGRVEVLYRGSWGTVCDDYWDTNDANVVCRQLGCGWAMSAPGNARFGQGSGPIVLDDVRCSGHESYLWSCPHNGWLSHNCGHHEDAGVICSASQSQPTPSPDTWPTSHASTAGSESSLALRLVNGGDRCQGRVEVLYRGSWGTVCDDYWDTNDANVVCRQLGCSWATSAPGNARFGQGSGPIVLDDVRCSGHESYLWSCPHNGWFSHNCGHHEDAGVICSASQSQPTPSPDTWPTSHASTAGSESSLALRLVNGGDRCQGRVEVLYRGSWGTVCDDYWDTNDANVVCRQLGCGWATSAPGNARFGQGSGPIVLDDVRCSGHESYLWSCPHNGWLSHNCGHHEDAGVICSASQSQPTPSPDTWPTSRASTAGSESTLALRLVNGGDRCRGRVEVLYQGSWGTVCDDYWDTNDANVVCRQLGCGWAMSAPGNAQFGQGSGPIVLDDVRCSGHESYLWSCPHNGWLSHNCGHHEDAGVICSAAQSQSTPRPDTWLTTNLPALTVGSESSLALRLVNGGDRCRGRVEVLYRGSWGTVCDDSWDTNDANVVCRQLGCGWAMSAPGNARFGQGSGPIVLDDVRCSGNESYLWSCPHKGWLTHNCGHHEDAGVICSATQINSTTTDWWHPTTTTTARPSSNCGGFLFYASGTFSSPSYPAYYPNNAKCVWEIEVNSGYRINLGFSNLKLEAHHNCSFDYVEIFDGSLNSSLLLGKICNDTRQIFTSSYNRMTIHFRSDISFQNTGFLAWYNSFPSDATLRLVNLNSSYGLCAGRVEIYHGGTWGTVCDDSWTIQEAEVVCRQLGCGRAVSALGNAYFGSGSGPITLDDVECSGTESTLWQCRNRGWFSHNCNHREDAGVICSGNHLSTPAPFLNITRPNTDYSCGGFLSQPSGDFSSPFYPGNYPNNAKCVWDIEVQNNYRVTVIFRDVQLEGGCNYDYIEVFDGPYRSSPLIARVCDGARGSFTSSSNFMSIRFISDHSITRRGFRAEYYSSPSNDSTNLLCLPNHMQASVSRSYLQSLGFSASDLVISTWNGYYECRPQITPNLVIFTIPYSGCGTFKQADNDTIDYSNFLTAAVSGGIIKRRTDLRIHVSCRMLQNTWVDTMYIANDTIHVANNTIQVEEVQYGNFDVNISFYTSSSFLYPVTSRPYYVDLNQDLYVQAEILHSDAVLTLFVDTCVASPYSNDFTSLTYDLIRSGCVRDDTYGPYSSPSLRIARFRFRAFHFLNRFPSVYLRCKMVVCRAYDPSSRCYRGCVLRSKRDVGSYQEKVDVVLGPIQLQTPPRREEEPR
Source text: Values are means of five independent experiments.

Salmonella typhimurium = Salmonella typhimurium binding to immobilized DMBT1 or peptide; settings: Rd1 and Re chemotype versus wild type
Description: Salivary DMBT1 (salivary agglutinin; DMBT1^SAG; hereafter referred to as DMBT1) was obtained from parotid saliva of healthy volunteer donors collected with Lashley cups. For confirmatory experiments of DMBT1 interaction partners, initial studies with Salmonella strains, and HIV studies we used DMBT1 purified to about 95% homogeneity by the procedure described before. The concentration was determined by the BCA Protein Assay Kit (Pierce) according to the instructions of the manufacturer. […] For partial purification, 50 ml parotid saliva was incubated for 0.5 to 1 h in ice water, in order to promote the formation of a precipitate. After centrifugation for 20 min (4° C.; 5,000 g), the pellet was resuspended in 1.0 to 2.5 ml PBS. In order to determine the DMBT1 concentrations within the samples, serial dilutions of the preparations were compared to serial dilutions of purified recombinant DMBT1 (rDMBT1) by ELISA and the adjusted concentrations were confirmed by Western blotting (see below).
Streptococcus mutans (Ingbritt), Streptococcus gordonii (HG 222 and DSM20568), Escherichia coli (F7 and OM36-1), and Helicobacter pylori (ATCC 43504) were gown and processed as described earlier. […]

With `CN=[N+](C)[O-]` [Azoxymethane (AOM), Azoxymethane] the “Aggregation of E. coli” value (DMBT1pbs1; substance 1-500 mM, pH co) was “+++” and the “Aggregation of S. gordonii” value (DMBT1pbs1; substance 1-500 mM, pH co) was “+++”.

`O=P([O-])([O-])O.[K+].[K+]` [K2HPO4] was tested, and the “Aggregation of E. coli” value (DMBT1pbs1; substance 1 mM, pH co) was “++” and the “Aggregation of S. gordonii” value (DMBT1pbs1; substance 1 mM, pH co) was “++”.

In the case of `Nc1ncnc2c1ncn2[C@H]1C[C@H](O)[C@@H](COP(=O)(O)OP(=O)(O)OP(=O)(O)O)O1` [dATP], the “Aggregation of E. coli” value (DMBT1pbs1; substance 1-8 mM, pH co) is reported as “++” and the “Aggregation of S. gordonii” value (DMBT1pbs1; substance 1-8 mM, pH co) is reported as “++”.

In the case of `[Ba+2].[OH-].[OH-]` [BaOH], the “Aggregation of E. coli” value (DMBT1pbs1; substance 5-50 mM, pH co) is reported as “+++” and the “Aggregation of S. gordonii” value (DMBT1pbs1; substance 5-50 mM, pH co) is reported as “+++”.

In the case of `[Cl-].[Na+]` [NaCL], the “Aggregation of E. coli” value (DMBT1pbs1) is reported as “+++ and +” and the “Aggregation of S. gordonii” value (DMBT1pbs1) is reported as “+++ and +”.

Heparan sulfate was tested, and the “Aggregation of E. coli” value (DMBT1pbs1; substance 1-5 mg/ml, pH co) was “−” and the “Aggregation of S. gordonii” value (DMBT1pbs1; substance 1-5 mg/ml, pH co) was “−”.

With Aprolinin the “Aggregation of E. coli” value (DMBT1pbs1; substance 1-5 mg/ml, pH co) was “+++” and the “Aggregation of S. gordonii” value (DMBT1pbs1; substance 1-5 mg/ml, pH co) was “+++”.

In the case of `O=P([O-])(O)O.[K+]` [KH2 PO4], the “Aggregation of E. coli” value (DMBT1pbs1; substance 1-10 mM, pH co) is reported as “+” and the “Aggregation of S. gordonii” value (DMBT1pbs1; substance 1-10 mM, pH co) is reported as “+”.

For `NC(=O)CC[C@H](N)C(=O)O` [Glutamine], the “Aggregation of E. coli” value (DMBT1pbs1; substance 1-250 mM, pH co) was “+++” and the “Aggregation of S. gordonii” value (DMBT1pbs1; substance 1-250 mM, pH co) was “+++”.

`CCN(CC)N=O` [N-nitrosodiethylamine (DEN), N-nitrosodiethylamine] was tested, and the “Aggregation of E. coli” value (DMBT1pbs1; substance 1-50 mM, pH co) was “+++”, the “Aggregation of S. gordonii” value (DMBT1pbs1; substance 1-50 mM, pH co) was “+++” and the “Aggregation of E. coli” value (DMBT1pbs1; substance 100-500 mM, pH co) was “++”. The “Aggregation of S. gordonii” value (DMBT1pbs1; substance 100-500 mM, pH co) was “++”.

For `O=[N+]([O-])[O-].[K+]` [KNO3], the “Aggregation of E. coli” value (DMBT1pbs1; substance 500 mM, pH co) was “+”, the “Aggregation of S. gordonii” value (DMBT1pbs1; substance 500 mM, pH co) was “+” and the “Aggregation of E. coli” value (DMBT1pbs1; substance 1-100 mM, pH co) was “+++”. For the same compound, the “Aggregation of S. gordonii” value (DMBT1pbs1; substance 1-100 mM, pH co) was “+++”.

dextran was tested, and the “inhibition of rDMBT1 binding to immobilized HIV-gp120” value [1] was “but not dextran, which lacks the sulfate groups, exerted an inhibitory effect”.

`OC[C@H]1O[C@H](O[C@H]2[C@H](O)[C@@H](O)C(O)O[C@@H]2CO)[C@H](O)[C@@H](O)[C@@H]1O` (mixture of isomers) [Maltose] was tested, and the “Aggregation of E. coli” value (DMBT1pbs1; substance 1-500 mM, pH co) was “+++” and the “Aggregation of S. gordonii” value (DMBT1pbs1; substance 1-500 mM, pH co) was “+++”.

With `Cc1cn([C@H]2C[C@H](O)[C@@H](COP(=O)(O)OP(=O)(O)OP(=O)(O)O)O2)c(=O)[nH]c1=O` [dTTP] the “Aggregation of E. coli” value (DMBT1pbs1; substance 1-8 mM, pH co) was “++” and the “Aggregation of S. gordonii” value (DMBT1pbs1; substance 1-8 mM, pH co) was “++”.

With “DMBT1: purified DMBT1 from saliva (salivary agglutinin)” the “binding of Salmonella typhimurium chemotypes” value (Salmonella typhimurium) was “Enhanced binding of the Rd1 and Re chemotype”.

`Nc1ccn([C@H]2C[C@H](O)[C@@H](COP(=O)(O)OP(=O)(O)OP(=O)(O)O)O2)c(=O)n1` [dCTP] was tested, and the “Aggregation of E. coli” value (DMBT1pbs1; substance 1-8 mM, pH co) was “++” and the “Aggregation of S. gordonii” value (DMBT1pbs1; substance 1-8 mM, pH co) was “++”.

With `Nc1nc2c(ncn2[C@H]2C[C@H](O)[C@@H](COP(=O)(O)OP(=O)(O)OP(=O)(O)O)O2)c(=O)[nH]1` [dGTP] the “Aggregation of E. coli” value (DMBT1pbs1; substance 1-8 mM, pH co) was “++” and the “Aggregation of S. gordonii” value (DMBT1pbs1; substance 1-8 mM, pH co) was “++”.

`O=P([O-])([O-])[O-].[Na+].[Na+].[Na+]` [Na3PO4] was tested, and the “Aggregation of E. coli” value (DMBT1pbs1; substance 1 mM, pH co) was “++” and the “Aggregation of S. gordonii” value (DMBT1pbs1; substance 1 mM, pH co) was “++”.

For “NH2-QGRVEVLYRGSWGTVC-COOH (H-QGRVEVLYRGSWGTVC-OH) [DMBT1-SRCRP2]”, the “binding of Salmonella typhimurium chemotypes” value (Salmonella typhimurium) was “Enhanced binding of the Rd1 and Re chemotype”.

For `OC[C@H]1O[C@@](CO)(O[C@H]2O[C@H](CO)[C@@H](O)[C@H](O)[C@H]2O)[C@@H](O)[C@@H]1O` [Sucrose], the “Aggregation of E. coli” value (DMBT1pbs1; substance 1-500 mM, pH co) was “+++” and the “Aggregation of S. gordonii” value (DMBT1pbs1; substance 1-500 mM, pH co) was “+++”.

For Chondroitin sulfate B, the “Aggregation of E. coli” value (DMBT1pbs1; substance 1-5 mg/ml, pH co) was “−” and the “Aggregation of S. gordonii” value (DMBT1pbs1; substance 1-5 mg/ml, pH co) was “−”.

`O=S(=O)([O-])[O-].[Na+].[Na+]` [Na2SO4] was tested, and the “Aggregation of E. coli” value (DMBT1pbs1; substance 1 mM, pH co) was “+”, the “Aggregation of S. gordonii” value (DMBT1pbs1; substance 1 mM, pH co) was “+” and the “Aggregation of E. coli” value (DMBT1pbs1; substance 50-500 mM, pH co) was “−”. For the same compound, the “Aggregation of S. gordonii” value (DMBT1pbs1; substance 50-500 mM, pH co) was “−”.

With `[Na+].[OH-]` [NaOH] the “Aggregation of E. coli” value (DMBT1pbs1; substance 5-50 mM, pH co) was “+++” and the “Aggregation of S. gordonii” value (DMBT1pbs1; substance 5-50 mM, pH co) was “+++”.
